# Results reported in patent EP0186173A2, “L-Aminodicarboxylic-(0-cycloalkyl)-L-aminocarboxylate alkyl esters, an edible composition containing same as sweeteners and a method for sweetening an edible composition” (GENERAL FOODS CORPORATION, priority 1984, dated 1986).
# Where a SMILES comes first, the peptide text is derived from it. The star is where a group is joined. tBu = CC(C)(C)*
# Columns and labels:
# [1] = qualitative statement from prior art / literature; cited from earlier work
# [2] = Sweetness taste panel: sucrose equivalency, aqueous solutions matched to sucrose standard solutions; conditions: relative to sucrose
# From the text: A taste procedure for determination of sweetness merely involves the determination.of sucrose equivalency. Sucrose equivalence for sweeteners are readily determined. The amount of a sweetener that is equivalent to a given weight percent sucrose can be determined by having a panel of tasters taste solutions of a sweetener at known concentrations and match its sweetness to standard solutionsof sucrose.
# The following sensory evaluations were obtained by a panel of experts using known weight percent aqueous solutions of the above compound matched to sucrose standard solutions as previously described.
Compound,sweetness [1],sweetness equivalent [2]
CCC(C)(C)OC[C@H](NC(=O)[C@@H](N)CC(=O)O)C(=O)OC [L-aspartyl-0-t-amyl-L-serine methyl ester],significant sweetness,
"COC(=O)[C@H](COC(C)(C)C)NC(=O)[C@@H](N)CC(=O)O [L-aspartyl-0-t,- butyl-L-serine methyl ester] (H-Asp-Ser(tBu)-OMe)",significant sweetness,
CCOC(=O)[C@H](COC1(C)CCCC1)NC(=O)[C@@H](N)CC(=O)O [∝-L-Aspartyl-O-(1-methylcyclopentyl)-L-serine ethyl ester],,150 x sucrose
